Data published in article PMC4869175, “Evidence that phytochrome functions as a protein kinase in plant light signalling” (Nature Communications, 2016).

Columns and labels:
[1] = target: T1, photosensory core of AsphyA (66-610) (Avena sativa, UniProt P06593); test: Photoaffinity labelling of the photosensory core with 8-azido-ATP and competition by unlabeled ATP; format: binding; conditions: 10 μM 8-azido-ATP
T1 construct: the PAS-GAF-PHY photosensory core (66–610aa) were also cloned into pPIC3.5K; made in house; host or cells: Pichia pastoris GS115
T1 sequence (P06593 66-610): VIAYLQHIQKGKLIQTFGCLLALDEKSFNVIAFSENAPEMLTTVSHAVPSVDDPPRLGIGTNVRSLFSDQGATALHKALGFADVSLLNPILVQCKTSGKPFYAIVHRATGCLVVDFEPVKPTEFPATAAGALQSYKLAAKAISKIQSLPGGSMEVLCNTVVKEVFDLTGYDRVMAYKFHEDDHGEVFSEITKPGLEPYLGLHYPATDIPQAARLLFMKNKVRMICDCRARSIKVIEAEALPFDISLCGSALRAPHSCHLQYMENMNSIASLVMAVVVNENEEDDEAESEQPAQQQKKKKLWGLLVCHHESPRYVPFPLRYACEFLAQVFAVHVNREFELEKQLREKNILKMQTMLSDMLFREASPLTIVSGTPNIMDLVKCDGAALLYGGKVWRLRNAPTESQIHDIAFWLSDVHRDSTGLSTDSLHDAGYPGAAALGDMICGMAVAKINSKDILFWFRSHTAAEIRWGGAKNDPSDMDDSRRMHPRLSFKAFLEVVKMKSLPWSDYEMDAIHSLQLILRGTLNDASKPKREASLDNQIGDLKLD
Method: To investigate ATP-binding to AsphyA proteins, photoaffinity labelling experiments were carried out using 8-N3-ATP-biotin-long chain-hydrazone (8-azido-ATP), which were purchased from Affinity Labeling Technologies, Inc. Purified phytochrome proteins (1.0 μg) were pre-incubated for 30 min on ice in 50 μl of photoaffinity labelling buffer (20 mM Tris-HCl, pH 7.0, 2 mM EDTA, 2 mM MgCl2 and 150 μM ATP), and then 8-azido-ATP was applied with indicated concentrations. After incubation for 5 more min on ice, ultraviolet light at 254 nm was then irradiated for 90 s using a hand-held ultraviolet lamp at 4 cm from the surface of the reaction mixtures. Immediately after photoaffinity labelling, reactions were stopped by adding SDS sample buffer, and the 8-azido-ATP-labelled phytochromes were detected with 1:2,000 avidin-HRP (A-115, Boston Biochem). After development, the images were scanned and opened by ImageJ, a Java-based image-processing software, to quantitate the photoaffinity labelling with azido-ATP analogues. Background signal was subtracted before normalization. […]
Supplementary Figure 11. […] 8-azido-ATP labeled proteins were then detected using avidin-HRP. […] The band intensities were quantified using ImageJ software, and the percentages of 8-azido-ATP labeling were normalized to the 66-610 protein signals. […]

[2] = target: T2, PAS-GAF-PHY photosensory core of AsphyA (66-610aa) (Avena sativa, UniProt P06593 66-610, phycocyanobilin chromophore assembled (chromophore-binding site C322)); test: pull-down; GST/strep-fused interacting protein (1.0 μg) held on glutathione resin, phytochrome (1.0 μg) in solution, Pr and Pfr forms both tested; 60 min at 4 °C in pull-down buffer (100 mM Tris-HCl pH 7.8, 1 mM EDTA, 150 mM NaCl, 100 μg/ml BSA); western blot with oat22 and anti-GST; conditions: both partners purified
T2 construct: Avena sativa phytochrome A, residues 66-610 (PAS-GAF-PHY photosensory core); also called the photosensory core; source: phycocyanobilin added in vitro
T2 sequence (looked up): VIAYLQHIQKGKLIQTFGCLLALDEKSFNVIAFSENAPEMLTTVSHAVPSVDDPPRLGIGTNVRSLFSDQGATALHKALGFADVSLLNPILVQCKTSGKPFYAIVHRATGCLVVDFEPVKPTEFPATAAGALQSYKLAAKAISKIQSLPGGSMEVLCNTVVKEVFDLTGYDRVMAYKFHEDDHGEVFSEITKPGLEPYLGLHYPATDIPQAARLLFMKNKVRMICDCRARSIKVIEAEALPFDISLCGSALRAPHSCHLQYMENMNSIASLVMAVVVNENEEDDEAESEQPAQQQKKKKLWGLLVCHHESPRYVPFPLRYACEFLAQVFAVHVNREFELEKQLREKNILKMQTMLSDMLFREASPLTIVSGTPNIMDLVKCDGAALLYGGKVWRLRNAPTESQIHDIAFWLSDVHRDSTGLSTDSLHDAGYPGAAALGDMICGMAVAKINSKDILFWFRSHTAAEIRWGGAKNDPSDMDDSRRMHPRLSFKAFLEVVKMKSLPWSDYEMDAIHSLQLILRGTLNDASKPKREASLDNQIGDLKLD

“8-N3-ATP-biotin-long chain-hydrazone [8-azido-ATP]” was tested, and the “photoaffinity labelling of the photosensory core” value ([1]; UV 90 s, Pr and Pfr forms) was “labelled”.

In the case of `Nc1ncnc2c1ncn2[C@@H]1O[C@H](COP(=O)(O)OP(=O)(O)OP(=O)(O)O)[C@@H](O)[C@H]1O` [ATP], the “concentration of unlabeled ATP that inhibited 8-azido-ATP photoaffinity labeling” value ([1]; unlabeled ATP 0-30 mM) is reported as “approximately 7.5 mM”.

B1: GST/strep-fused PIF3 (natural protein, UniProt O80536 1-524, looked up)
chain: MPLFELFRLTKAKLESAQDRNPSPPVDEVVELVWENGQISTQSQSSRSRNIPPPQANSSRAREIGNGSKTTMVDEIPMSVPSLMTGLSQDDDFVPWLNHHPSLDGYCSDFLRDVSSPVTVNEQESDMAVNQTAFPLFQRRKDGNESAPAASSSQYNGFQSHSLYGSDRARDLPSQQTNPDRFTQTQEPLITSNKPSLVNFSHFLRPATFAKTTNNNLHDTKEKSPQSPPNVFQTRVLGAKDSEDKVLNESVASATPKDNQKACLISEDSCRKDQESEKAVVCSSVGSGNSLDGPSESPSLSLKRKHSNIQDIDCHSEDVEEESGDGRKEAGPSRTGLGSKRSRSAEVHNLSERRRRDRINEKMRALQELIPNCNKVDKASMLDEAIEYLKSLQLQVQIMSMASGYYLPPAVMFPPGMGHYPAAAAAMAMGMGMPYAMGLPDLSRGGSSVNHGPQFQVSGMQQQPVAMGIPRVSGGGIFAGSSTIGNGSTRDLSGSKDQTTTNNNSNLKPIKRKQGSSDQFCGSS
notes: Probably Arabidopsis PIF3, as PIF1 and PIF4 are called Arabidopsis; not shown: GST, N-terminal, kept
B1: binds [2].
